Data taken from ChEMBL document CHEMBL1136033, “Effects of the incorporation of IBTM beta-turn mimetics into the dipeptoid CCK(1) receptor agonist PD 170292” (Bioorg Med Chem Lett, 2002).

Experiments:
[1] = biological target: T1, Gastrin/cholecystokinin type B receptor (Rattus norvegicus, UniProt P30553); experiment: Inhibition of [3H]propionyl-CCK-8 specific binding to rat cerebral cortex membranes Cholecystokinin type B receptor; format: cell membranes, Membrane
T1 sequence (P30553 whole entry): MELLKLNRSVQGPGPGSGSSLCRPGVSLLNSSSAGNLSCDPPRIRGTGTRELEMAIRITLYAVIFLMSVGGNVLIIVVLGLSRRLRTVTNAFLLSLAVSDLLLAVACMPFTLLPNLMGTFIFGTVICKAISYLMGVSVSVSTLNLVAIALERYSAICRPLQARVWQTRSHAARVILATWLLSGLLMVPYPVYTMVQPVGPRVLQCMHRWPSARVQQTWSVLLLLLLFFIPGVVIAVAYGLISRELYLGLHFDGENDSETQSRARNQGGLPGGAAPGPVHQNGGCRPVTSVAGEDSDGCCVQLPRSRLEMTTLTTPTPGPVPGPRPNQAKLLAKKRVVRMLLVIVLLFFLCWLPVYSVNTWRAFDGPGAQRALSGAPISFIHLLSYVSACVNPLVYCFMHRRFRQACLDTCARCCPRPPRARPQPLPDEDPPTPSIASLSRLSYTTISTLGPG

[2] = biological target: T2, Cholecystokinin receptor type A (Rattus norvegicus, UniProt P30551); experiment: Inhibition of [3H]propionyl-CCK-8 specific binding to rat pancreatic Cholecystokinin type A receptor
T2 sequence (P30551 whole entry): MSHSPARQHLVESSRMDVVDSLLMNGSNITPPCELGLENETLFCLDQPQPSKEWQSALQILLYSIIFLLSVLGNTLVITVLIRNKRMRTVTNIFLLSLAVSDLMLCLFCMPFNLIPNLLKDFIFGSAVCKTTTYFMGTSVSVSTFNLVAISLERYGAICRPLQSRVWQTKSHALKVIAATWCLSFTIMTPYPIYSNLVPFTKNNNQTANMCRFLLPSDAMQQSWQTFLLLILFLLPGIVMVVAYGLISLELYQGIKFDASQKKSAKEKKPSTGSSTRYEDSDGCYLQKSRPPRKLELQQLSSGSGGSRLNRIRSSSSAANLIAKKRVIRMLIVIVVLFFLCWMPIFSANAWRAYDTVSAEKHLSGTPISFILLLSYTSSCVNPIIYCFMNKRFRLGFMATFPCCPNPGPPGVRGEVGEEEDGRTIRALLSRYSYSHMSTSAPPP

[3] = The compound was tested to antagonize the CCK-8 induced amylase secretion from pancreatic acini; format: functional

| SMILES | IC50 [1] [nM] | IC50 [2] [nM] | IC50 [3] [nM] |
| --- | --- | --- | --- |
| Cc1ccccc1NC(=O)NCCCC[C@@H](CC(=O)O)NC(=O)[C@H]1Cc2c([nH]c3ccccc23)[C@@H]2C[C@@H](NC(=O)OCc3ccccc3)C(=O)N12 | 5800 | 8.2 | 196 |
| Cc1ccccc1NC(=O)NCCCC[C@@H](CC(=O)O)NC(=O)[C@@H]1Cc2c([nH]c3ccccc23)[C@H]2C[C@H](NC(=O)OCc3ccccc3)C(=O)N21 | > 10000 | 324 |  |
| O=C(N[C@H]1C[C@@H]2c3[nH]c4ccccc4c3C[C@@H](C(=O)N[C@@H](Cc3ccccc3)C(=O)O)N2C1=O)OCc1ccccc1 | > 10000 |  |  |
| Cc1ccccc1NC(=O)NCCCC[C@@H](CC(=O)O)NC(=O)[C@@](C)(Cc1c[nH]c2ccccc12)NC(=O)OC1C2CC3CC(C2)CC1C3 (some centres not stated) [PD-170292] | 6.7 |  |  |
